This assay has as its target T1, skeletal myofibrils (Rabbit Psoas), myosin ATPase activity.
T1 construct: Rabbit Psoas Prep 11 (0.25 mg/mL)
In words: Skeletal Myofibril ATPase Assay. Type of assay: biochemical. The settings on record: skeletal myofibrils (Rabbit Psoas 0.25 mg/mL), PK/LDH-coupled NADH absorbance at 340 nm. How it is done:
Overview: Myosin ATPase activity is assessed by using a coupled reaction system, in which ADP generated by the myosin ATPase function is coupled to the disappearance of NADH through the pyruvate kinase/lactate dehydrogenase (PK-LDH) system. Myosin ATPase activity produces ADP, which is used as a substrate for PK to produce pyruvate and regenerate ATP. The pyruvate is then used as a substrate by LDH to oxidize NADH to NAD+. The rate of the reaction is monitored through the time-dependent disappearance of NADH using absorbance at 340 nm. Inhibition of ATPase activity by the assayed compounds is indicated by a reduced rate of NADH loss, relative to vehicle-treated controls, over the experimental time window. To assess the selectivity of the assayed compounds for skeletal myofibrils, the compounds are counter-screened in cardiac myofibrils.
Materials: The following stock solutions and reagents were used in the Skeletal Myofibril ATPase Assay:
Stock Solutions of pCa buffer. Combine PIPES, CaCl2, and EGTA solutions with 70 mL of water. Adjust pH to 7.0 and bring final volume to 100 mL.
Buffer A & Buffer B. Buffers were stored on ice until use.
Skeletal Myofibril ATPase Assay Procedure: BSA, ATP, NADH, PEP, and DTT solutions were thawed at room temperature, then transferred to ice. Pellet-frozen myofibrils were transferred with approximately twice the required volume into a sufficiently large tube and capped. Myofibrils were thawed by rolling in a water bath for approximately 15 min at room temperature and cooled on ice. Buffers A and B were prepared by adjusting volumes as necessary for required number of wells and stored on ice. 0.5 μL of the compounds to be assayed were added into wells. 25 μL of Buffer A was dispensed into the wells, followed by 25 μL of Buffer B. The wells were measured for absorbance at 340 nm, using a kinetic protocol in which the wells are read every 1.5-2 min for 45 min. The slope of the data was approximated by subtracting the minimum absorbance value from the maximum value for each well. This was accomplished either in the SoftMax Pro software or in a spreadsheet program such as Excel. Using GraphPad Prism 8.0, the data was normalized by assigning a value of 100% to the 1% DMSO vehicle wells. Typically, a normalized 0% value was simply assigned to a (Max−Min) value of 0. The normalized data was fit to a Four Parameter Logistic sigmoidal equation, constraining the bottom to be 0 or greater. Compounds of Table 1 to 4 were tested and results of the assay appear in Table 5 herein. A=IC50 is less than or equal to 10 μM; B=IC50 is greater than 10 μM and less than 100 μM; C=IC50 is greater than 100 μM.

A value given as a limit tells only on which side of the number the result lay.

Usually IC50 stands for the concentration needed to halve the response being measured. A low value points to inhibition by little substance.

Consider `O=c1ccc(-c2cnc(N3CC(OC(F)(F)F)C3)nc2)nn1Cc1ccc(Cl)cc1` [Compound 18, 2-(4-chlorobenzyl)-6-(2-(3-(trifluoromethoxy)azetidin-1-yl)pyrimidin-5-yl)pyridazin-3(2H)-one], for which the half-inhibitory concentration (IC50) was below 10 µM. In turn, `O=c1ccc(-c2ccc(OC(F)F)nc2)nn1Cc1ccc(Cl)cc1` [Compound 19, 2-(4-chlorobenzyl)-6-(6-(difluoromethoxy)pyridin-3-yl)pyridazin-3(2H)-one] yielded a concentration for half-maximal inhibition (IC50) below 10 µM. With `O=c1ccc(-c2ccc(OC(F)F)nc2)nn1Cc1ccc(F)c(Cl)c1` [Compound 20, 2-(3-chloro-4-fluorobenzyl)-6-(6-(difluoromethoxy)pyridin-3-yl)pyridazin-3(2H)-one], the IC50 is below 10 µM. The figure for `O=c1ccc(-c2ccc(OCC3(F)COC3)nc2)nn1Cc1ccc(Cl)cc1` [Compound 21, 2-(4-chlorobenzyl)-6-(6-((3-fluorooxetan-3-yl)methoxy)pyridin-3-yl)pyridazin-3(2H)-one] is below 10 µM; for `O=c1ccc(-c2cnc(OCC3(F)COC3)nc2)nn1Cc1ccc(Cl)cc1` [Compound 22, 2-(4-chlorobenzyl)-6-(2-((3-fluorooxetan-3-yl)methoxy)pyrimidin-5-yl)pyridazin-3(2H)-one] it is below 10 µM. Under `O=c1ccc(-c2cnc(N3CCCC3)nc2)nn1Cc1ccc(F)cc1F` [Compound 23, 2-(2,4-difluorobenzyl)-6-(2-(pyrrolidin-1-yl)pyrimidin-5-yl)pyridazin-3(2H)-one] stands below 10 µM; under `O=c1ccc(-c2cnc(OCC3(F)COC3)nc2)nn1Cc1ccc(F)cc1F` [Compound 24, 2-(2,4-difluorobenzyl)-6-(2-((3-fluorooxetan-3-yl)methoxy)pyrimidin-5-yl)pyridazin-3(2H)-one], below 10 µM. `O=c1ccc(-c2cnc(OCC3COC3)nc2)nn1Cc1ccc(F)cc1F` [Compound 25, 2-(2,4-difluorobenzyl)-6-(2-(oxetan-3-ylmethoxy)pyrimidin-5-yl)pyridazin-3(2H)-one] registered an IC50 below 10 µM. As for `CC(=O)Nc1ncc(-c2ccc(=O)n(Cc3ccc(Cl)cc3)n2)cn1` [Compound 26, N-(5-(1-(4-chlorobenzyl)-6-oxo-1,6-dihydropyridazin-3-yl)pyrimidin-2-yl)acetamide], the IC50 is below 10 µM. The figure for `CN(C)c1ccc(-c2ccc(=O)n(Cc3ccc(Cl)cc3)n2)cn1` [Compound 27, 2-(4-chlorobenzyl)-6-(6-(dimethylamino)pyridin-3-yl)pyridazin-3(2H)-one] is below 10 µM.

Consider `CN1CCC(F)(COc2ccc(-c3ccc(=O)n(Cc4ccc(Cl)cc4)n3)cn2)CC1` [Compound 28, 2-(4-chlorobenzyl)-6-(6-((4-fluoro-1-methylpiperidin-4-yl)methoxy)pyridin-3-yl)pyridazin-3(2H)-one], for which the half-inhibitory concentration (IC50) is above 100 µM. `CN(CC(F)(F)F)c1ncc(-c2ccc(=O)n(Cc3ccc(F)cc3F)n2)cn1` [Compound 29, 2-(2,4-difluorobenzyl)-6-(2-(methyl(2,2,2-trifluoroethyl)amino)pyrimidin-5-yl)pyridazin-3(2H)-one]: the 50% inhibitory concentration (IC50) was below 10 µM. `O=c1ccc(-c2cnc(N3CCCC3C(F)(F)F)nc2)nn1Cc1ccc(F)cc1F` (stereo not shown) [Compound 30, 2-(2,4-difluorobenzyl)-6-(2-(2-(trifluoromethyl)pyrrolidin-1-yl)pyrimidin-5-yl)pyridazin-3(2H)-one] had an IC50 below 10 µM.

Molecule `O=c1ccc(-c2cnc(OCC(F)(F)F)nc2)nn1Cc1ccccc1` [Compound 31, 2-benzyl-6-(2-(2,2,2-trifluoroethoxy)pyrimidin-5-yl)pyridazin-3(2H)-one] had an IC50 below 10 µM.

`O=c1ccc(-c2cnc(NCC(F)F)nc2)nn1Cc1ccc(Cl)cc1` [Compound 32, 2-(4-chlorobenzyl)-6-(2-((2,2-difluoroethyl)amino)pyrimidin-5-yl)pyridazin-3(2H)-one] had an IC50 below 10 µM. Consider `O=c1ccc(-c2cnc(OCC3COC3)nc2)nn1Cc1ccc(Cl)cc1` [Compound 33, 2-(4-chlorobenzyl)-6-(2-(oxetan-3-ylmethoxy)pyrimidin-5-yl)pyridazin-3(2H)-one], for which the IC50 was below 10 µM. In turn, `O=c1ccc(-c2cnc(OCC(F)(F)F)nc2)nn1Cc1cccc(Cl)c1` [Compound 34, 2-(3-chlorobenzyl)-6-(2-(2,2,2-trifluoroethoxy)pyrimidin-5-yl)pyridazin-3(2H)-one] yielded an IC50 below 10 µM.

For `O=c1ccc(-c2cnc(OCC(F)(F)F)nc2)nn1Cc1cccc(F)c1` [Compound 35, 2-(3-fluorobenzyl)-6-(2-(2,2,2-trifluoroethoxy)pyrimidin-5-yl)pyridazin-3(2H)-one], the IC50 was below 10 µM. On to `O=c1ccc(-c2cnc(OCC(F)(F)F)nc2)nn1Cc1ccccc1F` [Compound 36, 2-(2-fluorobenzyl)-6-(2-(2,2,2-trifluoroethoxy)pyrimidin-5-yl)pyridazin-3(2H)-one], for which the concentration for half-maximal inhibition (IC50) was below 10 µM.

On to `O=c1ccc(-c2cnc(OCC(F)(F)F)nc2)nn1Cc1ccc(F)cc1` [Compound 37, 2-(4-fluorobenzyl)-6-(2-(2,2,2-trifluoroethoxy)pyrimidin-5-yl)pyridazin-3(2H)-one], for which the IC50 is below 10 µM.

`O=c1ccc(-c2cnc(OCC(F)(F)F)nc2)nn1Cc1cccc(F)c1F` [Compound 38, 2-(2,3-difluorobenzyl)-6-(2-(2,2,2-trifluoroethoxy)pyrimidin-5-yl)pyridazin-3(2H)-one] had a 50% inhibitory concentration (IC50) below 10 µM. `O=c1ccc(-c2cnc(OCC(F)(F)F)nc2)nn1Cc1ccc(F)cc1F` [Compound 39, 2-(2,4-difluorobenzyl)-6-(2-(2,2,2-trifluoroethoxy)pyrimidin-5-yl)pyridazin-3(2H)-one] displayed an IC50 below 10 µM. The figure for `O=c1ccc(-c2cnc(OCC(F)(F)F)nc2)nn1Cc1cc(F)ccc1F` [Compound 40, 2-(2,5-difluorobenzyl)-6-(2-(2,2,2-trifluoroethoxy)pyrimidin-5-yl)pyridazin-3(2H)-one] is below 10 µM; for `O=c1ccc(-c2cnc(OCC(F)(F)F)nc2)nn1Cc1c(F)cccc1F` [Compound 41, 2-(2,6-difluorobenzyl)-6-(2-(2,2,2-trifluoroethoxy)pyrimidin-5-yl)pyridazin-3(2H)-one] it is below 10 µM. The molecule `O=c1ccc(-c2cnc(OCC(F)(F)F)nc2)nn1Cc1ccc(F)c(F)c1` [Compound 42, 2-(3,4-difluorobenzyl)-6-(2-(2,2,2 trifluoroethoxy)pyrimidin-5-yl)pyridazin-3(2H)-one] displayed a concentration for half-maximal inhibition (IC50) below 10 µM. Take `O=c1ccc(-c2cnc(OCC(F)(F)F)nc2)nn1Cc1cc(F)cc(F)c1` [Compound 43, 2-(3,5-difluorobenzyl)-6-(2-(2,2,2-trifluoroethoxy)pyrimidin-5-yl)pyridazin-3(2H)-one]: the IC50 is below 10 µM. Under `O=c1ccc(-c2cnc(N3CC(F)(F)C3)nc2)nn1Cc1ccc(Cl)cc1` [Compound 44, 2-(4-chlorobenzyl)-6-(2-(3,3-difluoroazetidin-1-yl)pyrimidin-5-yl)pyridazin-3(2H)-one] stands below 10 µM; under `O=C1CCCN1c1ncc(-c2ccc(=O)n(Cc3ccc(Cl)cc3)n2)cn1` [Compound 45, 2-(4-chlorobenzyl)-6-(2-(2-oxopyrrolidin-1-yl)pyrimidin-5-yl)pyridazin-3(2H)-one], 10 to 100 µM.

(Values after patent publication US11390606B2, “Pyridazinone compounds and uses thereof” (Edgewise Therapeutics, Inc., priority 2018, dated 2022).)
